Laboratory results reported in ChEMBL document CHEMBL1137211, “Inhibitors of phenylethanolamine N-methyltransferase that are predicted to penetrate the blood-brain barrier: design, synthesis, and evaluation of 3-fluoromethyl-7-(N-substituted aminosulfonyl)-1,2,3,4-tetrahydroisoquinolines that possess low affinity toward the alpha2-adrenoceptor” (J Med Chem, 2004).

The compounds below were run against T1, Phenylethanolamine N-methyltransferase (Homo sapiens, UniProt P11086) (assay: not given).
T1 sequence (P11086 whole entry): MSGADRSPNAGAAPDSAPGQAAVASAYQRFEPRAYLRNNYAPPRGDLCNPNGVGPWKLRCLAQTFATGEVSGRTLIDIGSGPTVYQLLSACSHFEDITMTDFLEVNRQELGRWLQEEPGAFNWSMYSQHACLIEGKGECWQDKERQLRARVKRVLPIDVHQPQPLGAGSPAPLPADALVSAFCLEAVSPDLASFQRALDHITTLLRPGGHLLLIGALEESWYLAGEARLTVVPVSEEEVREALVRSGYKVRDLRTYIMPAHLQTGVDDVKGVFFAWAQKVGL

Ki [µM]	SMILES
890	O=S(=O)(Nc1cccc(Cl)c1)c1ccc2c(c1)CNC(CF)C2 (stereo not given)
250	O=[N+]([O-])c1cccc(NS(=O)(=O)c2ccc3c(c2)CNC(CF)C3)c1 (stereo not given)

Organism: Homo sapiens
Experiment: Ratio of Ki for alpha-2-adrenoceptor to that of PNMT was determined

Selectivity	SMILES
> 1.1	O=S(=O)(Nc1cccc(Cl)c1)c1ccc2c(c1)CNC(CF)C2 (stereo not given)
> 4	O=[N+]([O-])c1cccc(NS(=O)(=O)c2ccc3c(c2)CNC(CF)C3)c1 (stereo not given)

These compounds were tested against T2, Adrenergic receptor alpha-2 (Rattus norvegicus, UniProt P22086+P19328+P22909) (assay: Inhibition of [3H]clonidine binding to rat Alpha2 adrenoceptor).
T2 sequence (P22086 whole entry): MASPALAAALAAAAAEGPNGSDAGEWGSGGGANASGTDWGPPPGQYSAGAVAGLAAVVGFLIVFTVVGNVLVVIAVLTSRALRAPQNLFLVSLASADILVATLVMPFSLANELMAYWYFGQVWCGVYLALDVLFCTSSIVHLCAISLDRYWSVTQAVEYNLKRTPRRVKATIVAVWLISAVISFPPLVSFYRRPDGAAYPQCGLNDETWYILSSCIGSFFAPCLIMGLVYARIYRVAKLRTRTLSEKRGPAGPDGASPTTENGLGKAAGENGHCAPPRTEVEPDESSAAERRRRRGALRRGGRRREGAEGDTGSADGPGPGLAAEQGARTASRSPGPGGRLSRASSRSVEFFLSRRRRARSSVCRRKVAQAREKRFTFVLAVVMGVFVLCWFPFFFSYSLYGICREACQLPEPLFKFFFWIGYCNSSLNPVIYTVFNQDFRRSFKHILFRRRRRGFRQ
T2 sequence (P19328 whole entry): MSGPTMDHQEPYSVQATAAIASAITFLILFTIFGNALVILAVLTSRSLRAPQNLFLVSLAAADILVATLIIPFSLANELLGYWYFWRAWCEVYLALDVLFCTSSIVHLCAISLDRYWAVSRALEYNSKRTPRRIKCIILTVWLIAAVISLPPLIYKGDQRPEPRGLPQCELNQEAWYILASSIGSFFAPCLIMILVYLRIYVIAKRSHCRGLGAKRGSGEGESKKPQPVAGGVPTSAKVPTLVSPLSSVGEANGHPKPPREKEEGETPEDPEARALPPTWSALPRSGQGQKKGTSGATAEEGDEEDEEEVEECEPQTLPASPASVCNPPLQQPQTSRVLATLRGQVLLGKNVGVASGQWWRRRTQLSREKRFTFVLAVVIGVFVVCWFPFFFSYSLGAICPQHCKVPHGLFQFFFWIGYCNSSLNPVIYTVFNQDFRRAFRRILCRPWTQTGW
T2 sequence (P22909 whole entry): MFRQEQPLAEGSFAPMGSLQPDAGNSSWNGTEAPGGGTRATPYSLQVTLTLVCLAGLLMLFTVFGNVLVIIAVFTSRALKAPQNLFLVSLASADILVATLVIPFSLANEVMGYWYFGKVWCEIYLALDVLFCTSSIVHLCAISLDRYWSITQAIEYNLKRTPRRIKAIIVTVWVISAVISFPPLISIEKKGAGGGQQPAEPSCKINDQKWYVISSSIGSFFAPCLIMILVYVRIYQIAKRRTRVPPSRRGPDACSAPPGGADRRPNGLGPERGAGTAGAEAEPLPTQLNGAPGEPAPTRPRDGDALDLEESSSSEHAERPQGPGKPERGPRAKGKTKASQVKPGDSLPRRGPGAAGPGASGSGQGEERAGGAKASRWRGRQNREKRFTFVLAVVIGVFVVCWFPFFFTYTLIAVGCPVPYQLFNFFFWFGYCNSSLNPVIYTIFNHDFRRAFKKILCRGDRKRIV
Type: protein assay

SMILES	Ki [µM]
O=[N+]([O-])c1ccc(NS(=O)(=O)c2ccc3c(c2)CNC(CF)C3)cc1 (stereo not given)	> 1000
O=S(=O)(NC12CC3CC(CC(C3)C1)C2)c1ccc2c(c1)CNC(CF)C2 (stereo not given)	100
CC(C)NS(=O)(=O)c1ccc2c(c1)CNC(CF)C2 (stereo not given)	580
O=S(=O)(c1ccc2c(c1)CNC(CF)C2)N1CCCCC1 (stereo not given)	820
O=S(=O)(c1ccc2c(c1)CNC(CF)C2)N1CCSCC1 (stereo not given)	190
O=S(=O)(Nc1ccc(O)cc1)c1ccc2c(c1)CNC(CF)C2 (stereo not given)	280
O=S(=O)(NCCc1ccccc1)c1ccc2c(c1)CNC(CF)C2 (stereo not given)	58
O=S(=O)(NC1CCc2ccccc2C1)c1ccc2c(c1)CNC(CF)C2 (stereo not given)	1.3
Clc1ccc2c(c1Cl)CNCC2	0.02
O=S(=O)(Nc1ccc(F)cc1)c1ccc2c(c1)CNC(CF)C2 (stereo not given)	86
O=S(=O)(Nc1cccc(Cl)c1)c1ccc2c(c1)CNC(CF)C2 (stereo not given)	> 1000
O=S(=O)(Nc1ccc2ccccc2c1)c1ccc2c(c1)CNC(CF)C2 (stereo not given)	12
O=S(=O)(c1ccc2c(c1)CNC(CF)C2)N1CCOCC1 (stereo not given)	2100
O=[N+]([O-])c1cccc(NS(=O)(=O)c2ccc3c(c2)CNC(CF)C3)c1 (stereo not given)	> 1000
O=S(=O)(NCC(F)(F)F)c1ccc2c(c1)CNC(CF)C2 (stereo not given)	1200
O=S(=O)(Nc1ccc(Cl)cc1)c1ccc2c(c1)CNC(CF)C2 (stereo not given)	140

Second part, the compound after the results:

Ki [µM]	SMILES
6.8	O=S(=O)(NCCCCc1ccccc1)c1ccc2c(c1)CNC(CF)C2 (stereo not given)
350	CCOCCCNS(=O)(=O)c1ccc2c(c1)CNC(CF)C2 (stereo not given)
440	CCOCCNS(=O)(=O)c1ccc2c(c1)CNC(CF)C2 (stereo not given)
660	O=S(=O)(NCCC(F)(F)F)c1ccc2c(c1)CNC(CF)C2 (stereo not given)
260	CCCCNS(=O)(=O)c1ccc2c(c1)CNC(CF)C2 (stereo not given)
430	COCCNS(=O)(=O)c1ccc2c(c1)CNC(CF)C2 (stereo not given)
610	CCCNS(=O)(=O)c1ccc2c(c1)CNC(CF)C2 (stereo not given)
550	CCNS(=O)(=O)c1ccc2c(c1)CNC(CF)C2 (stereo not given)
350	O=S(=O)(NCCCC(F)(F)F)c1ccc2c(c1)CNC(CF)C2 (stereo not given)
750	COCCCNS(=O)(=O)c1ccc2c(c1)CNC(CF)C2 (stereo not given)
